1 compound from patent US11161845B2, “Pyrrolopyridine-aniline compounds for treatment of dermal disorders” (Nflection Therapeutics, Inc., priority 2017, dated 2021) can be followed below.

For one series, the system named is A375 cells. Briefly: A375 (BRAF) GI50 cell-based assay (Cell Titer-Glo). The following applies: Homo sapiens, A-375; 72 hours; read-out: Assay 2: A375 (BRAF) GI50. The procedure:
(§1) Alternatively, the following procedure can be used to measure cell-based activity. Test compounds were dissolved in DMSO in 10 mM stock. Cell Titer-Glo® 2.0 Luminescent cell viability assay reagent was purchased from Promega (Madison, Wis.). A375 and HCT116 cell lines were purchased from American Type Culture Collection (Manassas, Va.). For A375 cells, cell culture media was DMEM+10% FBS. For HCT116 cells, cell culture media was McCoy's 5A+10% FBS. All media were supplemented with 100 μg/mL of penicillin, and 100 μg/mL of streptomycin. Cultures were maintained at 37° C. in a humidified atmosphere of 5% CO2 and 95% air.
(§2) Test compounds were diluted in DMSO solution with 10-dose and 3-fold dilutions in a source plate starting at 10 mM. 25 nL of each test compound was delivered from the source plate to each well of the 384-well cell culture plates (T=Final) by Echo 550. 25 μL of culture medium containing 2000 of A375 or HCT116 cells was added to each of the wells in duplicates of the cell culture plates (T=0 and T=Final). 25 μL of Cell Titer Glo 2.0 reagent was added to each well of cell culture plate (T=0). The contents were mixed on an orbital shaker for 2 min and incubated at room temperature for 15 min to stabilize luminescent signal. Luminescence was recorded by Envision 2104 Multilabel Reader (PerkinElmer, Santa Clara, Calif.). The number of viable cells in culture was determined based on quantitation of the ATP present in each culture well. The cells in cell culture plate (T=Final) were incubated with the compounds at 37° C., 5% CO2 for 72 hours. 25 μL of Cell Titer Glo 2.0 reagent was added to each well. The contents were mixed on an orbital shaker for 2 min and incubated at room temperature for 15 min to stabilize luminescent signal. Luminescence was recorded by Envision 2104 Multilabel Reader (PerkinElmer, Santa Clara, Calif.). The number of viable cells in culture was determined based on quantitation of the ATP present in each culture well. The G150 curves were plotted using the GraphPad Prism 4 program based on a sigmoidal dose-response equation Y=Bottom+(Top−Bottom)/(1+10^((Log EC50−X)*HillSlope)). All parameters in the equation were calculated by GraphPad Prism 4 program. […] Accordingly, GI50 is the value of 10^X, where X was calculated by the Curve Fitting Equation when Y=50 using Excel.
On the technique in general: Cellular ATP, detected with luciferase, serves as a proxy for viable cell number.

A further series deals with HCT116 cells. The series can be described thus: HCT116 (Kras) GI50 cell-based assay (Cell Titer-Glo). The following applies: Homo sapiens, HCT-116; 72 hours; read-out: Assay 3: HCT116 (Kras) GI50. The procedure:
as §1, §2

In series [1] the test system is p-ERK in human cutaneous neurofibroma (cNF) explants. The series can be described thus: Human cutaneous neurofibroma explant protocol, p-ERK suppression. Format: cell-based.
Excerpt: Study Objectives: The primary objective was to assess the efficacy of a topically-formulated compound described herein in suppressing p-ERK, a downstream biomarker of RAS/MAPK signaling in neurofibroma explants.
Primary dermal neurofibromas or cutaneous neurofibromas were obtained from patients with clinical or genetic diagnoses of NFL. […] Specimens were identified under the direction of the Principal Investigator and placed in cell proliferation media (DMEM/F12 containing penicillin/streptomycin (0.1%); fungizone (40 μg/mL); B27 (without vitamin A).
Specimens were identified under the direction of the Principal Investigator
Specimens were chopped into 2 mm fragments and placed in 24-well plates containing cell proliferation media (DMEM/F12 containing penicillin/streptomycin (0.1%); fungizone (40 μg/mL); B27 (without vitamin A) and submerged in media with drug. For topical gel application, samples were placed in 96 well plates with epidermal surface exposed to air.
The gel formulation was 1% hydroxypropyl cellulose in DMSO/PEG 400 1:1 (v/v). Harvested tissue was bisected and with half snap frozen and half fixed in 10% formalin and paraffin embedded for further analysis.
Samples were harvested at 4 hours with half snap frozen in liquid nitrogen and half fixed in 10% formalin and paraffin embedded for histologic analysis.
Western Blot analysis: For immunoblotting, total skin biopies were lysed in lysis buffer and run on Western blots. Antibodies used for immunoblotting included rabbit anti-phospho-p44/42 MAPK (1:3000, Cell Signaling) and rabbit anti-p44/42 MAPK (1:3000, Cell Signaling), rabbit anti-phospho-Mek1/2 (1:3000, Cell Signaling), mouse anti-actin (1:5000, Sigma-Aldrich), donkey anti-mouse IgG conjugated to horseradish peroxidase (HRP; 1:40,000, Amersham Biosciences) and goat anti-rabbit IgG conjugated HRP (1:40,000, Jackson ImmunoResearch).
Immunohistochemistry: Immunohistochemistry was performed on 5 pm paraffin sections. Antigen retrieval with enzyme treatment (1:1000) using standard protocols. Antibodies used were rabbit p-ERK (Cell Signaling, 4307S, 1:100). Bond Polymer Refine anti-rabbit HRP Detection (Leica Biosystems) was used according to manufacturer's protocol. Sections were then counterstained with hematoxylin, dehydrated and film coverslipped using a TissueTek-Prisma and Coverslipper (Sakura).
Data Analysis: Semi-quantative Western blot was used to assess differences in p-ERK in samples treated with a compound described herein compared to vehicle control.
The test system of a further series is MDCK-MDR1 cells. Briefly: in vitro. The following applies: dog, MDCK-MDR1, 1 h, 5 μM. As for the experimental part: (§3) MDCK-MDR1 is a stable-transfected cell line originating from MDCK cells, with over-expression of human MDR1 gene. The cell line is widely used for the identification and characterization of P-gp substrates and inhibitors.
(§4) MDCK-MDR1 cells were plated into 96-well Millipore Millicell-96 plates at 7,500 cells/75 μL/well and incubated for three days at 37° C. with 5% CO2. Cells were washed with Hank's Balanced Salt Solution (HBSS) with 5 mM HEPES for 30 minutes before starting the experiment. Test compound solutions were prepared by diluting DMSO stock into HBSS buffer, resulting in a final DMSO concentration of 0.1%. Prior to the experiment, cell monolayer integrity was verified by […] electrical resistance (TEER). Transport experiment was initiated by adding test compounds to the apical (75 μL) or basal (250 μL) side. Transport plates were incubated at 37° C. in a humidified incubator with 5% CO2. Samples were taken from the donor and acceptor compartments after one hour and analyzed by liquid chromatography with tandem mass spectrometry (LC/MS/MS).
(§5) Digoxin was used as reference control.
(§6) Apparent permeability (Papp) values were calculated using the following equation: Papp=(dQ/dt)/A/Co; where dQ/dt is the initial rate of amount of test compound transported across cell monolayer, A is the surface area of the filter membrane, and Co is the initial concentration of the test compound, calculated for each direction using a 4-point calibration curve by LC/MS/MS.
(§7) Net flux ratio between the two directional transports was calculated by the following equation: Ratio=Papp, B-A/Papp, A-B; where Papp, B-A and Papp, A-B represent the apparent permeability of test compound from the basal-to-apical and apical-to-basal side of the cellular monolayer, respectively.
(§8) Recovery was calculated based on the compound concentration at the end of the experiment, compared to that at the beginning of the experiment, adjusted for volumes.
(§9) A net flux ratio greater than two was considered a positive result for substrate determination. […] If the addition of a known P-gp inhibitor to the experiment reduces the net flux ratio by a significant amount (more than 50% reduction or reduces the ratio to close to unity), it is likely that the compound tested is a P-gp substrate.

The next series concerns P-gp (human MDR1). Briefly: in vitro. The following applies: dog; for Papp A→B at 1 h, 5 μM / Papp B→A at 1 h, 5 μM: MDCK-MDR1, Papp. As for the experimental part:
as §3, §4, §5, §6, §7, §8, §9

SMILES strings stand for the structures.

As to `Cn1c(Nc2ccc(I)cc2F)c(C(=O)NOCCO)c2cccnc21` [Example 2, 2-((2-Fluoro-4-iodophenyl)amino)—N-(2-hydroxyethoxy)-1-methyl-1H-pyrrolo[2,3-b]pyridine-3-carboxamide], the GI50 worked out at 63 nM with A375 cells and 196 nM in the series on HCT116 cells. Moreover, the “suppression of p-ERK” value in series [1] (FIG. 2, 500 nM, explant submerged in media, 4 hours) is “suppression of p-ERK”. In addition, the “dose-dependent suppression of p-ERK” value in series [1] (FIG. 3, explant submerged in media, 4 hours) is recorded as “dose-dependent suppression of p-ERK”. Further, the “p-ERK after application of a topical gel” value in series [1] (FIG. 4, gel 1% hydroxypropyl cellulose in DMSO/PEG 400 1:1, 4 hours) is “p-ERK was suppressed”. Further, the “suppression of pERK” value in series [1] (FIGS. 1a and 1b, explant submerged in media, 4 hours) was “suppression of pERK”. Besides, the “Papp, A-B Value” in the series with MDCK-MDR1 cells stood at 47.8 ×10⁻⁶ cm/s. In the series with MDCK-MDR1 cells, the “Papp, B-A Value” worked out at 41.3 ×10⁻⁶ cm/s. In addition, the “Recover Rate” value in the series with MDCK-MDR1 cells was 92%. In addition, the efflux ratio at 1 h, 5 μM with P-gp (human MDR1) (MDCK-MDR1) is 0.9. Moreover, the apparent permeability from apical to basolateral (Papp A→B) at 1 h, 5 μM with P-gp (human MDR1) (A-B Mean) was determined as 49.1 ×10⁻⁶ cm/s; with P-gp (human MDR1) (A-B Value) it was 50.5 ×10⁻⁶ cm/s. For the same compound, the basolateral-to-apical permeability (Papp B→A) at 1 h, 5 μM in the series on P-gp (human MDR1) (B-A Mean) worked out at 41.8 ×10⁻⁶ cm/s; in the series with P-gp (human MDR1) (B-A Value) it was 42.3 ×10⁻⁶ cm/s.

By GI50 is commonly meant the concentration giving 50% growth inhibition. For orientation: efflux ratio means the permeability from basolateral to apical divided by that in the opposite direction, in the common usage. The Papp A→B is the apparent permeability from the apical to the basolateral side of a cell layer. A high value points to ready permeation. In general, Papp B→A refers to the apparent permeability from the basolateral to the apical side of a cell layer.
